Test results from article PMC11310079, “Commensal production of a broad-spectrum and short-lived antimicrobial peptide polyene eliminates nasal Staphylococcus aureus” (Nature Microbiology, 2023).

Legend:
[1] = cited from earlier work
From the text: To our knowledge, the combination of peptide–polyene–tetramic acid moieties is unique to epifadin. […] In contrast to the ionophore act ...

S. aureus USA300LAC = assay: Determination of the IC (miniaturized agar diffusion assay); format: cell-based, Staphylococcus aureus; settings: agar diffusion on inoculated TSA, 35 µl in 4-mm wells, 24 h 37 °C dark; IC from inhibited agar volume at lowest active amount
Description: (§1) Instead, a miniaturized assay was developed. Molten TSA, kept below 42 °C, was inoculated with different test strains at an OD600 of 0.00125. Then, 17.5 ml was poured into Petri dishes, resulting in agar layers of ~3.16 mm thickness. After solidification, a cork borer was used to punch wells of 4-mm diameter into the agar. Thirty-five microlitres of purified epifadin in DMSO–PA (2.4 µg, 1.2 µg, 0.6 µg, 0.3 µg, 0.15 µg and 0.075 µg) was pipetted into the wells, and agar plates were incubated for 24 h at 37 °C in the dark. Diameters of the zones of inhibition were measured and the volume containing the inhibitory epifadin concentration was calculated, using the following formula for cylinder volume: Vc=πxr^2xhVc=cylindervolumeVi=πrz2xha−(πrw2xha)Vi=inhibitedvolumerz2=radius(diameter/2)zoneofinhibitionrw2=radius(diameter/2)ofwellha=heightofagar
(§2) The volume of agar showing inhibition of the test strain was then correlated with the included amount of epifadin, and the epifadin concentration necessary to inhibit test strain growth in a 1 ml volume was calculated to yield IC values. If, for example, 2.4 µg of epifadin lead to an inhibited volume of 480 µl, to inhibit a volume of 1 ml, 5 µg epifadin is needed, which corresponds to an IC of 5 μg ml^−1. These calculations were conducted for the lowest amount of epifadin that led to a zone of inhibition to minimize the necessary epifadin amounts and the calculation error due to the gradient within the inhibition zone. As a control, the same assay was used to determine the IC for vancomycin, daptomycin and lugdunin under these conditions.

S. aureus USA300 JE2 = assay: as above; format: cell-based, Staphylococcus aureus; settings: agar diffusion on inoculated TSA, 24 h 37 °C dark; IC from inhibited agar volume
Description: as §1, §2

S. aureus USA300 LAC = assay: Stability analysis of epifadin (bioactivity by agar diffusion after incubation); format: physicochemical, Staphylococcus aureus; settings: lugdunin 70 µg/ml in TSB, 37 °C, pH 7, light, r4-r10 = 0-6 h
Description: Fig. 2 High instability of epifadin under in vivo-like conditions. S. epidermidis IVK83 culture supernatants containing epifadin were precipitated with HCl, freeze-dried and extracted with DMSO. This extract was diluted in TSB, incubated for the indicated time periods with constant shaking under the respective conditions and subsequently tested for activity towards S. aureus USA300 LAC. a, Stability of epifadin compared with other antibacterial agents under standard laboratory conditions (37 °C, pH 7, laboratory light exposure). b, In vivo-like conditions with laboratory light exposure at pH 7 (nasal condition) or pH 5.5 (skin condition) and reduced temperatures; incubation of epifadin under exclusion from light enabled further purification and activity determination. Conditions at pH 7, 37 °C and 0 h were used as reference for 100% stability. Data shown represent the mean ± s.d. of three independent experiments. Source data
The effect of different incubation conditions on the bioactivity of epifadin was analysed by agar diffusion assays on lawns of the sensitive indicator strain S. aureus USA300 LAC. To this end, liquid TSA was inoculated with an overnight culture of USA300 at an OD600 of 0.00125. After solidification of the agar, a cork borer was used to punch wells into the agar with 5 mm diameter. TSB media with 50 mM sodium citrate (pH 5 and 6) or 50 mM tris(hydroxymethyl)aminomethane (pH 8 and 9) were prepared. Epifadin-containing precipitate was dissolved in DMSO (12 mg ml^−1), and insoluble particles were removed by centrifugation. The supernatant was added to the prepared TSB media at a final concentration of 750 µg precipitate per millilitre (37.5 µg in 50 µl). Media were incubated for 6 h at 21 °C, 30 °C or 37 °C with or without laboratory light exposure and constant shaking at 500 rpm in a thermomixer (Eppendorf). As controls, 70 µg ml^−1 (3.5 µg in 50 µl) lugdunin, 24 µg ml^−1 (1.2 µg in 50 µl) gallidermin and 100 µg ml^−1 (5 µg in 50 µl) nisin were used. At different timepoints, 50 µl of each sample was pipetted into the wells of the agar plates. After incubation at 37 °C overnight, zones of inhibition were analysed with ImageJ software (version 1.8.0_112).

Compound: CC(=O)C1=C(O)[C@@H](CC(C)C)NC1=O [mutanocyclin]
- antimicrobial activity [1]: not antimicrobial

Compound: CCCCCCC/C=C/C(=O)N1C(O)=C(C(C)=O)C(=O)[C@H]1CC(C)C [reutericyclin A]
- antimicrobial activity [1]: antimicrobial

Compound: Lugdunin
- IC* (S. aureus USA300LAC): 7.3 µg/mL
- IC* (S. aureus USA300 JE2): 8.5 µg/mL
- stability (remaining antimicrobial activity, 0 h = 100%) (S. aureus USA300 LAC; experiment 1 of 3, after 1 h incubation): 83.34%
- stability (remaining antimicrobial activity, 0 h = 100%) (S. aureus USA300 LAC; experiment 1 of 3, after 2 h incubation): 75.95%
- stability (remaining antimicrobial activity, 0 h = 100%) (S. aureus USA300 LAC; experiment 1 of 3, after 3 h incubation): 68.18%
- stability (remaining antimicrobial activity, 0 h = 100%) (S. aureus USA300 LAC; experiment 1 of 3, after 4 h incubation): 72.38%
- stability (remaining antimicrobial activity, 0 h = 100%) (S. aureus USA300 LAC; experiment 1 of 3, after 5 h incubation): 65.52%
- stability (remaining antimicrobial activity, 0 h = 100%) (S. aureus USA300 LAC; experiment 1 of 3, after 6 h incubation): 61.66%
- stability (remaining antimicrobial activity, 0 h = 100%) (S. aureus USA300 LAC; experiment 2 of 3, after 1 h incubation): 81.19%
- stability (remaining antimicrobial activity, 0 h = 100%) (S. aureus USA300 LAC; experiment 2 of 3, after 2 h incubation): 74.91%
- stability (remaining antimicrobial activity, 0 h = 100%) (S. aureus USA300 LAC; experiment 2 of 3, after 3 h incubation): 69.51%
- stability (remaining antimicrobial activity, 0 h = 100%) (S. aureus USA300 LAC; experiment 2 of 3, after 4 h incubation): 68.58%
- stability (remaining antimicrobial activity, 0 h = 100%) (S. aureus USA300 LAC; experiment 2 of 3, after 5 h incubation): 65.27%
- stability (remaining antimicrobial activity, 0 h = 100%) (S. aureus USA300 LAC; experiment 2 of 3, after 6 h incubation): 69.75%
- stability (remaining antimicrobial activity, 0 h = 100%) (S. aureus USA300 LAC; experiment 3 of 3, after 1 h incubation): 81.54%
- stability (remaining antimicrobial activity, 0 h = 100%) (S. aureus USA300 LAC; experiment 3 of 3, after 2 h incubation): 76.22%
- stability (remaining antimicrobial activity, 0 h = 100%) (S. aureus USA300 LAC; experiment 3 of 3, after 3 h incubation): 72.30%
- stability (remaining antimicrobial activity, 0 h = 100%) (S. aureus USA300 LAC; experiment 3 of 3, after 4 h incubation): 70.84%
- stability (remaining antimicrobial activity, 0 h = 100%) (S. aureus USA300 LAC; experiment 3 of 3, after 5 h incubation): 67.83%
- stability (remaining antimicrobial activity, 0 h = 100%) (S. aureus USA300 LAC; experiment 3 of 3, after 6 h incubation): 62.11%
